3 molecules from US20230398130A1, “METHODS AND COMPOSITIONS FOR DIFFERENTIATING STEM CELLS” (Massachusetts Institute of Technology, priority 2020, published 2023) can be followed below.

Test [1] relates to ISC-enriched organoids. Kind of test: Primary screen, 384-well 2.5-D organoid differentiation (ENR+CD, 6 days): basal lysozyme secretion (LYZ.NS). It is filed as cell-based, murine. To be noted: primary screen; for Dose.FC.LYZ.NS: ENR+CD 6 days, FC vs plate median; for Z.LYZ.NS: standard z score of FC. An excerpt: (§1) High-throughput screening.
Test [2] concerns ISC-enriched organoids. Description: Primary screen, 384-well 2.5-D organoid differentiation (ENR+CD, 6 days): carbachol-induced lysozyme secretion (LYZ.S). It is filed as cell-based, murine. To be noted: primary screen, ENR+CD 6 days, FC vs plate median.
Excerpt: as §1

Test [3] has as its system ISC-enriched organoids. Kind of test: Primary screen, 384-well 2.5-D organoid differentiation (ENR+CD, 6 days, Target Selective Inhibitor Library, vs whole-plate median): ATP (CellTiter-Glo 3D, CTG). Conditions: primary screen; for Dose.FC.CTG: ENR+CD 6 days, FC vs plate median; for Z.CTG: standard z score of FC. (In general: In ATP-based viability assays light output follows the ATP content of the culture.)

Regarding `C[C@@H]1COCCN1c1cc(C2(S(C)(=O)=O)CC2)nc(-c2cccc3[nH]ccc23)n1` [AZ20], the Dose.FC.LYZ.NS in the test on ISC-enriched organoids [1] (dose 0.08 uM) is recorded as 0.042 log 2 fold change; in the test with ISC-enriched organoids [1] (dose 0.40 uM), −0.140 log 2 fold change; with ISC-enriched organoids [1] (dose 2.00 uM), −0.215 log 2 fold change; in the test on ISC-enriched organoids [1] (dose 10.00 uM) it was −0.261 log 2 fold change. Moreover, the Z.LYZ.NS in the test on ISC-enriched organoids [1] (dose 0.08 uM) is recorded as 0.365; in the test with ISC-enriched organoids [1] (dose 0.40 uM), −1.222; in the test on ISC-enriched organoids [1] (dose 2.00 uM), −1.868; in the test with ISC-enriched organoids [1] (dose 10.00 uM) it was −2.271. The Dose.FC.LYZ.S is −0.038 log 2 fold change in the test with ISC-enriched organoids [2] (dose 0.08 uM), −0.236 log 2 fold change with ISC-enriched organoids [2] (dose 0.40 uM), −0.373 log 2 fold change in the test on ISC-enriched organoids [2] (dose 2.00 uM) and −0.329 log 2 fold change with ISC-enriched organoids [2] (dose 10.00 uM). In addition, the Dose.FC.CTG is listed as −0.210 log 2 fold change with ISC-enriched organoids [3] (dose 0.08 uM), −0.218 log 2 fold change in the test with ISC-enriched organoids [3] (dose 0.40 uM), −1.054 log 2 fold change with ISC-enriched organoids [3] (dose 2.00 uM) and −0.573 log 2 fold change in the test on ISC-enriched organoids [3] (dose 10.00 uM). For the same molecule, the Z.CTG in the test with ISC-enriched organoids [3] (dose 0.08 uM) is recorded as −0.500; in the test on ISC-enriched organoids [3] (dose 0.40 uM), −0.521; in the test with ISC-enriched organoids [3] (dose 2.00 uM), −2.519; in the test with ISC-enriched organoids [3] (dose 10.00 uM), −1.368.

As to `COc1cc(N2CCN(C)CC2)ccc1Nc1nccc(-c2cn(C)c3cnccc23)n1` [AZ191], the Dose.FC.LYZ.NS with ISC-enriched organoids [1] (dose 0.08 uM) is on record as 0.128 log 2 fold change; with ISC-enriched organoids [1] (dose 0.40 uM) it was 0.082 log 2 fold change; with ISC-enriched organoids [1] (dose 2.00 uM), 0.058 log 2 fold change; with ISC-enriched organoids [1] (dose 10.00 uM), −0.148 log 2 fold change. The Z.LYZ.NS in the test with ISC-enriched organoids [1] (dose 0.08 uM) was 1.111; in the test on ISC-enriched organoids [1] (dose 0.40 uM), 0.717; with ISC-enriched organoids [1] (dose 2.00 uM), 0.507; in the test with ISC-enriched organoids [1] (dose 10.00 uM) it was −1.289. Besides, the Dose.FC.LYZ.S with ISC-enriched organoids [2] (dose 0.08 uM) was 0.143 log 2 fold change; in the test with ISC-enriched organoids [2] (dose 0.40 uM), 0.199 log 2 fold change; in the test on ISC-enriched organoids [2] (dose 2.00 uM), 0.097 log 2 fold change; with ISC-enriched organoids [2] (dose 10.00 uM), −0.200 log 2 fold change. The Dose.FC.CTG is listed as 0.292 log 2 fold change in the test with ISC-enriched organoids [3] (dose 0.08 uM), 0.337 log 2 fold change in the test with ISC-enriched organoids [3] (dose 0.40 uM), 0.150 log 2 fold change in the test with ISC-enriched organoids [3] (dose 2.00 uM) and −0.533 log 2 fold change in the test with ISC-enriched organoids [3] (dose 10.00 uM). Also, the Z.CTG in the test with ISC-enriched organoids [3] (dose 0.08 uM) was 0.697; in the test with ISC-enriched organoids [3] (dose 0.40 uM) it was 0.804; with ISC-enriched organoids [3] (dose 2.00 uM), 0.358; in the test on ISC-enriched organoids [3] (dose 10.00 uM), −1.272.

As to `COc1cc(OC2CCN(C)CC2)ccc1Nc1ncc2c(n1)n(C1CCCC1)c(=O)n2C` [AZ 3146], the Dose.FC.LYZ.NS in the test on ISC-enriched organoids [1] (dose 0.08 uM) is 0.073 log 2 fold change; with ISC-enriched organoids [1] (dose 0.40 uM) it was −0.038 log 2 fold change; in the test on ISC-enriched organoids [1] (dose 2.00 uM), −0.079 log 2 fold change; in the test on ISC-enriched organoids [1] (dose 10.00 uM), −0.281 log 2 fold change. Also, the Z.LYZ.NS in the test on ISC-enriched organoids [1] (dose 0.08 uM) is on record as 0.639; with ISC-enriched organoids [1] (dose 0.40 uM), −0.327; in the test with ISC-enriched organoids [1] (dose 2.00 uM) it was −0.687; with ISC-enriched organoids [1] (dose 10.00 uM), −2.447. The Dose.FC.LYZ.S in the test with ISC-enriched organoids [2] (dose 0.08 uM) is given as 0.049 log 2 fold change; in the test with ISC-enriched organoids [2] (dose 0.40 uM), −0.067 log 2 fold change; with ISC-enriched organoids [2] (dose 2.00 uM), −0.130 log 2 fold change; in the test on ISC-enriched organoids [2] (dose 10.00 uM) it was −0.422 log 2 fold change. For the same molecule, the Dose.FC.CTG in the test on ISC-enriched organoids [3] (dose 0.08 uM) is −0.130 log 2 fold change; in the test on ISC-enriched organoids [3] (dose 0.40 uM) it was −0.262 log 2 fold change; in the test on ISC-enriched organoids [3] (dose 2.00 uM), −0.369 log 2 fold change; with ISC-enriched organoids [3] (dose 10.00 uM) it was −1.168 log 2 fold change. Also, the Z.CTG is −0.310 with ISC-enriched organoids [3] (dose 0.08 uM), −0.626 with ISC-enriched organoids [3] (dose 0.40 uM), −0.881 with ISC-enriched organoids [3] (dose 2.00 uM) and −2.789 in the test with ISC-enriched organoids [3] (dose 10.00 uM).
